Columns and labels:
[1] = test system: topoisomerase II; experiment: KDNA decatenation assay; type: biochemical; conditions: 50 μM drug, 10 min at 37°C, gel
[2] = test system: acetyl tubulin; experiment: Western blot of tubulin acetylation in DU-145 cells; conditions: DU-145, 4 h; DAU 90, 500 nM; 7 130, 500 nM; 12b 1.31, 10 μM
[3] = test system: acetylated histones H4 and H3; experiment: Western blot of histone H4 and H3 acetylation in DU-145 cells; type: cell-based, human; conditions: DU-145, 24 h; SAHA 2.5, 5 μM; DAU 0.1, 0.5 μM; 7 0.5, 1 μM; 12b 2.5, 5 μM
[4] = test system: Topo II-DNA cleavage complexes; experiment: Cellular Topo II inhibition; type: cell-based, human; conditions: 90 nM DAU, 130 nM 7, […] 12b; for stabilized Topo II-DNA cleavage complexes, 30 min treatment: DU-145, 30 min; for stabilized Topo II-DNA cleavage complexes, 72 hour treatment: DU-145, 72 h
[5] = target: T1, HDAC 8 (Homo sapiens, UniProt Q9BY41); experiment: Recombinant HDAC 8 inhibition; conditions: HDAC 8 vs HDAC 1
T1 sequence (Q9BY41 1-377): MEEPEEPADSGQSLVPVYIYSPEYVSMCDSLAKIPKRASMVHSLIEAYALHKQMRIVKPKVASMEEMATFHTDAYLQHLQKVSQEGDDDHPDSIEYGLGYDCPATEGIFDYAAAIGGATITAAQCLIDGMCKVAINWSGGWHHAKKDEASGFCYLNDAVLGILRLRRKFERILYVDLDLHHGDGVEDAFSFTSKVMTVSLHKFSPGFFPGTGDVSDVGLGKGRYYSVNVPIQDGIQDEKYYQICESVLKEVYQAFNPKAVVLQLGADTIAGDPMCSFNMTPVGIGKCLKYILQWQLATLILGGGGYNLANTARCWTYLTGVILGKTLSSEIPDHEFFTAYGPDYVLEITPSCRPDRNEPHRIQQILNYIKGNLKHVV

[6] = target: HDAC 1 (Homo sapiens, UniProt Q13547); experiment: Recombinant HDAC 1 inhibition; conditions: 12c vs 12a
[7] = test system: HeLa cell nuclear extract HDACs (HDAC 1/2); experiment: In vitro HDAC inhibition, HeLa nuclear extract; type: biochemical; conditions: relative to 12a
[8] = target: T2, HDAC 6 (Homo sapiens, UniProt Q9UBN7); experiment: Recombinant HDAC 6 inhibition; type: biochemical
T2 sequence (Q9UBN7 1-1215): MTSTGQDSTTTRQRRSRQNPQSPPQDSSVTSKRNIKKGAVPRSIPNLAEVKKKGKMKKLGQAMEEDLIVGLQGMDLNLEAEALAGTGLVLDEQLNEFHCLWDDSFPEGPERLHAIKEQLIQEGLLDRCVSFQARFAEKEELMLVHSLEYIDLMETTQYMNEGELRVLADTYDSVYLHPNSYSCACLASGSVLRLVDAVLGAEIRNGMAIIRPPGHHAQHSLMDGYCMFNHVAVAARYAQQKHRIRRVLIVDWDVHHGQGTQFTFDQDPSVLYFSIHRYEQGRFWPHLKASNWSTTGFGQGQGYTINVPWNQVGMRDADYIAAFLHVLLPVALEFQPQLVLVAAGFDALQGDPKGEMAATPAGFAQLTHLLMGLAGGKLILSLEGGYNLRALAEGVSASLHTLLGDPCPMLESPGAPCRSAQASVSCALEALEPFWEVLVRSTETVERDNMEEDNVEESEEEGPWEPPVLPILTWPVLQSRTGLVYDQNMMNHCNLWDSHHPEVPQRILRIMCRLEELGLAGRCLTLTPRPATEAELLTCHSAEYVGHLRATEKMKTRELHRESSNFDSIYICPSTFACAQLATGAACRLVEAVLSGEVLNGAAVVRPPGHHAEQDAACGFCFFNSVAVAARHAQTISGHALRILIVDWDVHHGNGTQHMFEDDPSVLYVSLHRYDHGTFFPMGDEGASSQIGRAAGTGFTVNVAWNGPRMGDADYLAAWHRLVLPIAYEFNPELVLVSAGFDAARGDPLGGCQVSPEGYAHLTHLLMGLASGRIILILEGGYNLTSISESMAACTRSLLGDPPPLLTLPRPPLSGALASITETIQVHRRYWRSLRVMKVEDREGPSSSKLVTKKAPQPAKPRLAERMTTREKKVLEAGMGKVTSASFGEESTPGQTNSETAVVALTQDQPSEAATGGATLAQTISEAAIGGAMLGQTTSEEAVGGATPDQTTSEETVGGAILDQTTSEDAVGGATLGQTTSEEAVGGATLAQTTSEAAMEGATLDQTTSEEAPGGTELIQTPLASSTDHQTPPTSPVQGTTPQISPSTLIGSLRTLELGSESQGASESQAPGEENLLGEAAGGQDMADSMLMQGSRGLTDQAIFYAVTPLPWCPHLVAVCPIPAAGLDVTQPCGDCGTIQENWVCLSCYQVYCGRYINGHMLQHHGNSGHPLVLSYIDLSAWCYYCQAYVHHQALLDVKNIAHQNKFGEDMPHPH

HDAC 1, sequence (Q13547 whole entry): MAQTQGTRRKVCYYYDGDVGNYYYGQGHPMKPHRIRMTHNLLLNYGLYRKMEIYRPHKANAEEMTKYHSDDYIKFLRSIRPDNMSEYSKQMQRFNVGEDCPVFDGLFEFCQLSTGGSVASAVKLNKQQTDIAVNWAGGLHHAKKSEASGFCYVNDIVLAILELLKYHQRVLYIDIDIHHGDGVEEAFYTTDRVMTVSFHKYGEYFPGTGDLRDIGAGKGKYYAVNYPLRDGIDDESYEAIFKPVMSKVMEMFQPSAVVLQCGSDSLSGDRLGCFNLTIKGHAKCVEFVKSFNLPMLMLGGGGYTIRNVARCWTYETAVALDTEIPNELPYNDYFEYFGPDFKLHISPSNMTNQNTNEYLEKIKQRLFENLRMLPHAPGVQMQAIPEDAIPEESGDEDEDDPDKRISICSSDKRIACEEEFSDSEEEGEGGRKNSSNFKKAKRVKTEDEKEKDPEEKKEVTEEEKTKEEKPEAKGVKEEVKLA

Row | SMILES | Topo II inhibition (KDNA decatenation) [1] | tubulin acetylation (immunoblot) [2] | histone H4 acetylation (immunoblot) [3] | stabilized Topo II-DNA cleavage complexes, 30 min treatment [4] | stabilized Topo II-DNA cleavage complexes, 72 hour treatment [4] | anti-HDAC 8 activity, fold less than anti-HDAC 1 activity [5] | fold activity difference between 12a and 12c, HDAC inhibitory activity [6] | fold more potent than 12a, HeLa nuclear extract HDACs [7] | IC50 [8] [nM]
1 | COc1cccc2c1C(=O)c1c(O)c3c(c(O)c1C2=O)C[C@@](O)(C(C)=O)C[C@@H]3O[C@H]1C[C@H](NCc2ccc(-c3cn(CCCCCC(=O)NO)nn3)cc2)[C@H](O)[C@H](C)O1 [Compound 12b, Daunorubicin-N-benzyl-4-triazolylhexahydroxamic Acid] | comparable levels to that of DAU | robust acetylation | strong H4 acetylation | significantly higher amount | drastic drop |  |  |  | 
2 | COc1cccc2c1C(=O)c1c(O)c3c(c(O)c1C2=O)C[C@@](O)(C(C)=O)C[C@@H]3O[C@H]1C[C@H](NCc2ccc(NC(=O)CCCCCCC(=O)NO)cc2)[C@H](O)[C@H](C)O1 [Compound 7, Daunorubicin-N-benzyl-4-amino-8-oxooctahydroxamic Acid] | comparable levels to that of DAU | moderate levels of acetylation |  | indistinguishable from that of the control cells | measured increase in Topo II inhibition | about 4 fold |  |  | 
3 | COc1cccc2c1C(=O)c1c(O)c3c(c(O)c1C2=O)C[C@@](O)(C(C)=O)C[C@@H]3O[C@H]1C[C@H](N)[C@H](O)[C@H](C)O1 [DAU, daunomycin, reference compound] | severe impairment of DNA decatenation | lowest levels of acetylation |  | high levels | significant inhibition of Topo II activity |  |  |  | 
4 | COc1cccc2c1C(=O)c1c(O)c3c(c(O)c1C2=O)C[C@@](O)(C(C)=O)C[C@@H]3O[C@H]1C[C@H](NCc2ccc(-c3cn(CCCCCCC(=O)NO)nn3)cc2)[C@H](O)[C@H](C)O1 [Compound 12c, Daunorubicin-N-benzyl-4-triazolylheptahydroxamic Acid] | near total inhibition |  |  |  |  |  | ~ 600 fold |  | 
5 | COc1cccc2c1C(=O)c1c(O)c3c(c(O)c1C2=O)C[C@@](O)(C(C)=O)C[C@@H]3O[C@H]1C[C@H](NCc2ccc(-c3cn(CCCCCCCC(=O)NO)nn3)cc2)[C@H](O)[C@H](C)O1 [Compound 12d, Daunorubicin-N-benzyl-4-triazolyloctahydroxamic Acid] | lower Topo II inhibition activity |  |  |  |  |  |  | about 20 fold | 
6 | COc1cccc2c1C(=O)c1c(O)c3c(c(O)c1C2=O)C[C@@](O)(C(C)=O)C[C@@H]3O[C@H]1C[C@H](NCc2ccc(-c3cn(CCCCC(=O)NO)nn3)cc2)[C@H](O)[C@H](C)O1 [Compound 12a, Daunorubicin-N-benzyl-4-triazolylpentahydroxamic Acid] | lower Topo II inhibition activity |  |  |  |  |  |  |  | 600
